From patent US5855885A, “Isolation and production of catalytic antibodies using phage technology” (priority 1994, dated 1999)

Key:
[1] = system: mouse anti-RT3 scFv clone 96 (PCR pattern A); assay: competitive inhibition ELISA, scFv binding to RT3-BSA; conditions: 100 uM competitor, preincubated 1 hour at room temperature; ELISA signal normalized to no inhibitor (FIG. 8)
Description: (§1) The clones selected for analysis and their corresponding PCR pattern (see Table 1, Example 4.3) were: 50 (PCR B), 64 (PCR A), 68 (PCR D), 71 (PCR E), 80 (PCR C), 84 (PCR A), 95 (PCR I), 96 (PCR A), and 97 (PCR A). Soluble scFv was purified from 50 ml cultures of each clone using the IMAC protocol described in Example 4.1, except bound antibody was eluted with 50 mM EDTA, 0.5M NaCl. The scFv concentration for each clone was estimated from silver stained SDS polyacrylamide gels by running a portion of the eluted protein on a gel containing appropriate scFv concentration standards. The scFv protein was diluted to 4 ug/ml and then serially diluted 1:2 across 11 wells of RT3-BSA coated ELISA plate. The concentration of scFv giving 50% of the maximum ELISA signal was determined from the titration. This concentration of scFv was used for a subsequent competitive inhibition assay described below.
(§2) A competitive inhibition ELISA assay was performed by incubating scFV (at a concentration as determined by titration above) with 100 uM of each of the following compounds: RT3 hapten (Compound 7, FIG. 1), left hand portion of RT3 hapten (designated RT3A, Compound 8, FIG. 2), right hand portion of RT3 hapten (designated RT3B, Compound 12, FIG. 3), The left and right hand portions of the expected products from the esteriolytic cleavage of substrate (Compound 15, FIG. 4) designated Product A (Mesitylacetic acid, FIG. 4) and Product B (Compound 13, FIG. 4). The scFv was preincubated with the inhibitor compound in tubes at room temperature for 1 hour prior to addition to RT3-BSA coated ELISA wells. The […] readings have been normalized to a value of 1, which represents the ELISA signal seen for the corresponding scFv in the absence of added competitive inhibitor.

[2] = system: mouse anti-RT3 scFv clone 64 (PCR pattern A); assay: as above; conditions: 100 uM competitor, preincubated 1 hour at room temperature; ELISA signal normalized to no inhibitor (FIG. 8)
Description: as §1, §2

[3] = system: catalytic mouse anti-RT3 scFv clone 83; assay: catalytic assay (HPLC), hydrolysis of RT3 substrate by scFv; format: biochemical
Description: (§3) To further examine the scFv fragments for catalytic activity, the potentially-catalytic proteins identified in the early screen described above were individually grown and purified. Purification of the scFv was acheived as described in Example 6.1 using either IMAC or affinity chromotagraphy on anti-Myc-Protein A agarose. Assays were performed in the same buffer systems and pH values as in the early screen but the antibodies were tested individually and they were not immobilized but free in solution.
(§4) From these secondary assays, two scFv molecules, designated 18 and 83, catalytic activity was found. Clone 18 appeared to be active at pH 9.0 but not at pH 7.0 while clone 83 appeared to be active at pH 7.0 but not at pH 9.0 or 5.0. […] These two clones were selected as candidates for large scale purifcation of scFv as described below. The results of these assays are presented in Example 6.4.
Assay of IMAC or HIC purified scFv from clone 83 was done in a similar manner as described for clone 18 with the following exceptions. Substrate was buffered in 25 mM HEPES, pH 7.0, 140 mM NaCl and 0.01% NaN3. Due to the lower background hydrolysis of RT3 substrate at neutral pH, reactions were typically run for 24 hours. A blank was also analyzed and gives a profile similar to the that in FIG. 17B (data not shown).

[4] = system: catalytic mouse anti-RT3 scFv clone 18; assay: as above; format: biochemical
Description: as §3, §4
For clone 18 a typical catalytic assay was set up as follows: 50 μl of scFv was added to 145 μl of RT3 substrate (Compound 15, FIG. 4) and 5 μl of water or for some assays 5 μl of RT3 hapten. A blank consisting of 50 μl of water and […] of RT3 substrate was set up to monitor the background hydrolysis of the RT3 substrate. The reaction was allowed to proceed for 6 hours after which samples were frozen at -20° C. to stop the reaction. Samples were analyzed by HPLC as described in example 5.1. […]

[5] = system: mouse anti-RT3 scFv clone 84 (PCR pattern A); assay: competitive inhibition ELISA, scFv binding to RT3-BSA; conditions: 100 uM competitor, preincubated 1 hour at room temperature; ELISA signal normalized to no inhibitor (FIG. 8)
Description: as §1, §2

[6] = system: mouse anti-RT3 scFv clone 95 (PCR pattern I); assay: as above; conditions: 100 uM competitor, preincubated 1 hour at room temperature; ELISA signal normalized to no inhibitor (FIG. 8)
Description: as §1, §2

[7] = system: mouse anti-RT3 scFv clone 97 (PCR pattern A); assay: as above; conditions: 100 uM competitor, preincubated 1 hour at room temperature; ELISA signal normalized to no inhibitor (FIG. 8)
Description: as §1, §2

[8] = system: mouse RT3 phage antibody scFv clone 71 (PCR pattern E); assay: as above; conditions: 100 uM competitor, preincubated 1 hour at room temperature; ELISA signal normalized to no inhibitor (FIG. 8); clone cross-reacts with BSA
Description: as §1, §2

[9] = system: mouse anti-RT3 scFv clone 80 (PCR pattern C); assay: as above; conditions: 100 uM competitor, preincubated 1 hour at room temperature; ELISA signal normalized to no inhibitor (FIG. 8)
Description: as §1, §2

[10] = system: mouse anti-RT3 scFv clone 50 (PCR pattern B); assay: as above; conditions: 100 uM competitor, preincubated 1 hour at room temperature; ELISA signal normalized to no inhibitor (FIG. 8)
Description: as §1, §2

[11] = system: mouse RT3 phage antibody scFv clone 68 (PCR pattern D); assay: as above; conditions: 100 uM competitor, preincubated 1 hour at room temperature; ELISA signal normalized to no inhibitor (FIG. 8); clone cross-reacts with BSA
Description: as §1, §2

Row | SMILES | inhibition of scFv binding to RT3-BSA [1] | inhibition of scFv binding to RT3-BSA [2] | catalysis in the presence of RT3 hapten ([3]; IMAC pure scFv, RT3 substrate, pH 7.0, 24 hours, RT3 hapten added (concentration not given), FIG. 17B) | inhibition of catalytic activity ([3]; secondary screening, pH 7.0, 10 μM antibody, 40 μM substrate, 30 μM hapten) | catalysis in the presence of RT3 hapten ([4]; IMAC pure scFv, 50 uM RT3 substrate, pH 9.0, 6 hours, 5 μl RT3 hapten added (concentration not given), FIG. 15B) | inhibition of catalytic activity ([4]; secondary screening, pH 9.0, 10 μM antibody, 40 μM substrate, 30 μM hapten) | inhibition of scFv binding to RT3-BSA [5] | inhibition of scFv binding to RT3-BSA [6] | inhibition of scFv binding to RT3-BSA [7] | inhibition of scFv binding to RT3-BSA [8] | inhibition of scFv binding to RT3-BSA [9] | inhibition of scFv binding to RT3-BSA [10] | inhibition of scFv binding to RT3-BSA [11]
1 | Cc1cc(C)c(CC(=O)O)c(C)c1 [Product A, Mesitylacetic acid, reference compound] | to a lesser extent | to a lesser extent | – | – | – | – | – | – | – | – | – | – | –
2 | Cc1cc(C)c(CP(=O)(O)Oc2ccc(CC(=O)O)cc2)c(C)c1 [RT3 hapten, 4-(carboxymethyl) phenyl-(2,4,6-trimethylphenyl)-methyl phosphonate] | inhibited | inhibited | completely abrogated | significantly inhibited | completely abrogated | significantly inhibited | inhibited | inhibited | inhibited | did not show inhibition | inhibited | inhibited | did not show inhibition
3 | COP(=O)(O)Cc1c(C)cc(C)cc1C [RT3A] | binding inhibition | binding inhibition | – | – | – | – | binding inhibition | – | binding inhibition | – | – | binding inhibition | –
4 | NC(=O)Cc1ccc(O)cc1 [Product B, 4-Hydroxyphenylacetamide] | No inhibition | No inhibition | – | – | – | – | No inhibition | No inhibition | No inhibition | No inhibition | No inhibition | No inhibition | No inhibition
